Laboratory results reported in patent US20150148551A1, “GENISTEIN FOR REDUCING LEVELS OF STORAGE COMPOUNDS IN THE TREATMENT AND/OR PREVENTION OF LYSOSOMAL STORAGE DISEASES (LSDS)” (3G THERAPEUTICS, INC., priority 2012, published 2015).

Columns and labels:
MPS II and III = conditions: animal tests and pilot clinical trials; cited from earlier work
ACP5 = test: DNA microarray, ACP5 expression in fibroblasts exposed to genistein; assay type: cell-based, human; conditions: for ACP5 fold change Average: 48 h vs DMSO
Procedure: (§1) The experiments were conducted to characterise the transcriptomic profile of human fibroblast cells exposed to genistein, and in particular to determine the expression of genes encoding lysosomal enzymes involved in metabolism (i.e. synthesis and degradation) of organic substances. The absence or deficiency of these enzymes' activity is responsible for occurrence of various lysosomal storage diseases (LSD) (including MPS). The tested hypothesis assumed that genistein influences the expression of many genes, among which there are genes coding for enzymes required in metabolism of compounds, which are pathologically stored in LSD. The results provide important information regarding genistein action on the molecular level within the range of gene expression modulation by this substance. The experiment was conducted in biological quintuplicates. Human dermal fibroblasts (HDFa) were exposed in vitro for 1, 24 or 48 hours to: 30, 60 or 100 μM of genistein; 0.05% DMSO (K1); or were untreated (control cells) (K2), and total RNA was isolated and analysed.
(§2) Fibroblast cells were grown in Dulbecco (DMEM) medium supplemented with 10% fetal bovine serum (FBS) with the addition of 1% antibiotics and anti-fungal agents at 37° C. in humidified atmosphere of 5% CO2, until the required confluency was obtained.
(§3) To determine the effect of tested compound on the transcriptom of the fibroblast cells, the growth medium was replaced with fresh medium, either non-supplemented (0.05% DMSO), or containing genistein (30, 60 or 100 μM, in 0.05% DMSO). The exposure was done for 1, 24 or 48 hours.
(§4) Total RNA was isolated from fibroblasts using High Pure RNA Isolation Kit according to the protocol and then it was quantitatively evaluated using Quant-It™ RiboGreen® Assay Kit.
(§5) Biotinylated cRNA was prepared using Ambion Total PrepAmp Kit for Illumina arrays.
(§6) Standard hybridization and quantitative image analysis procedures—Illumina hybridization protocol and Illumina scanning protocol, were used.
(§7) Processing of the results was done during data definition, including: background correction (using background subtraction method), normalization (using quantile normalization algorithm with Illumina GenomeStudio software package: gene expression module version 1.9.0) and summarization (using method, which sums the values of signal intensities from a set of probes).

ABCA9 = test: DNA microarray, ABCA9 expression in fibroblasts exposed to genistein; assay type: cell-based, human; conditions: for ABCA9 fold change Average: 48 h vs DMSO
Procedure: as §1, §2, §3, §4, §5, §6, §7

ASAH1 = test: DNA microarray, ASAH1 expression in fibroblasts exposed to genistein; assay type: cell-based, human; conditions: for ASAH1 fold change Average: 48 h vs DMSO
Procedure: as §1, §2, §3, §4, §5, §6, §7

AGA = test: DNA microarray, AGA expression in fibroblasts exposed to genistein; assay type: cell-based, human; conditions: for AGA fold change Average: 48 h vs DMSO
Procedure: as §1, §2, §3, §4, §5, §6, §7

HEXA = test: DNA microarray, HEXA expression in fibroblasts exposed to genistein; assay type: cell-based, human; conditions: for HEXA fold change Average: 48 h vs DMSO
Procedure: as §1, §2, §3, §4, §5, §6, §7

GNPTAB = test: DNA microarray, GNPTAB expression in fibroblasts exposed to genistein; assay type: cell-based, human; conditions: for GNPTAB fold change Average: 48 h vs DMSO
Procedure: as §1, §2, §3, §4, §5, §6, §7

EXT1 = test: DNA microarray, EXT1 expression in fibroblasts exposed to genistein; assay type: cell-based, human
Procedure: as §1, §2, §3, §4, §5, §6, §7

SMILES: O=c1c(-c2ccc(O)cc2)coc2cc(O)cc(O)c12 [genistein, 4′,5,7-trihydroxy-3-phenylchromen-4-one]
- effectiveness in the treatment of MPS II and III (MPS II and III): promising effectiveness
- ACP5 fold change Average 1h30/1hK1 (ACP5; 30 μM, 1 h vs 0.05% DMSO): 0.9865 fold change
- ACP5 fold change Average (ACP5; 30 μM): 1.6259 fold change
- ACP5 fold change Average 1h60/1hK1 (ACP5; 60 μM, 1 h vs 0.05% DMSO): 1.066 fold change
- ACP5 fold change Average (ACP5; 60 μM): 1.7507 fold change
- ACP5 fold change Average 1h100/1hK1 (ACP5; 100 μM, 1 h vs 0.05% DMSO): 1.141 fold change
- ACP5 fold change Average (ACP5; 100 μM): 1.763 fold change
- ABCA9 fold change Average 1h30/1hK1 (ABCA9; 30 μM, 1 h vs 0.05% DMSO): 1.0096 fold change
- ABCA9 fold change Average (ABCA9; 30 μM): 1.3825 fold change
- ABCA9 fold change Average 1h60/1hK1 (ABCA9; 60 μM, 1 h vs 0.05% DMSO): 1.129 fold change
- ABCA9 fold change Average 1h100/1hK1 (ABCA9; 100 μM, 1 h vs 0.05% DMSO): 0.9831 fold change
- ABCA9 fold change Average (ABCA9; 100 μM): 1.635 fold change
- ASAH1 fold change Average 1h30/1hK1 (ASAH1; 30 μM, 1 h vs 0.05% DMSO): 1.1419 fold change
- ASAH1 fold change Average (ASAH1; 30 μM): 1.0802 fold change
- ASAH1 fold change Average 1h60/1hK1 (ASAH1; 60 μM, 1 h vs 0.05% DMSO): 1.029 fold change
- ASAH1 fold change Average (ASAH1; 60 μM): 1.412 fold change
- ASAH1 fold change Average 1h100/1hK1 (ASAH1; 100 μM, 1 h vs 0.05% DMSO): 1.252 fold change
- ASAH1 fold change Average (ASAH1; 100 μM): 1.52 fold change
- AGA fold change Average 1h30/1hK1 (AGA; 30 μM, 1 h vs 0.05% DMSO): 1.0395 fold change
- AGA fold change Average (AGA; 30 μM): 1.3732 fold change
- AGA fold change Average 1h60/1hK1 (AGA; 60 μM, 1 h vs 0.05% DMSO): 0.9753 fold change
- AGA fold change Average (AGA; 60 μM): 1.864 fold change
- AGA fold change Average 1h100/1hK1 (AGA; 100 μM, 1 h vs 0.05% DMSO): 0.9749 fold change
- AGA fold change Average (AGA; 100 μM): 2.33 fold change
- HEXA fold change Average 1h30/1hK1 (HEXA; 30 μM, 1 h vs 0.05% DMSO): 1.2226 fold change
- HEXA fold change Average (HEXA; 30 μM): 1.0817 fold change
- HEXA fold change Average 1h60/1hK1 (HEXA; 60 μM, 1 h vs 0.05% DMSO): 1.174 fold change
- HEXA fold change Average (HEXA; 60 μM): 1.474 fold change
- HEXA fold change Average 1h100/1hK1 (HEXA; 100 μM, 1 h vs 0.05% DMSO): 1.042 fold change
- HEXA fold change Average (HEXA; 100 μM): 1.621 fold change
- GNPTAB fold change Average 1h30/1hK1 (GNPTAB; 30 μM, 1 h vs 0.05% DMSO): 0.7878 fold change
- GNPTAB fold change Average (GNPTAB; 30 μM): 1.6393 fold change
- GNPTAB fold change Average 1h60/1hK1 (GNPTAB; 60 μM, 1 h vs 0.05% DMSO): 1.235 fold change
- GNPTAB fold change Average 1h100/1hK1 (GNPTAB; 100 μM, 1 h vs 0.05% DMSO): 0.8628 fold change
- GNPTAB fold change Average (GNPTAB; 100 μM): 1.872 fold change
- EXT1 fold change Average 1h30/1hK1 (EXT1; 30 μM, 1 h vs 0.05% DMSO): 0.9138 fold change
- EXT1 fold change Average 24h30/24hK1 (EXT1; 30 μM, 24 h vs 0.05% DMSO): 0.8048 fold change
- EXT1 fold change Average 48h30/48hK1 (EXT1; 30 μM, 48 h vs 0.05% DMSO): 0.9291 fold change
- EXT1 fold change Average 1h60/1hK1 (EXT1; 60 μM, 1 h vs 0.05% DMSO): 0.9881 fold change
- EXT1 fold change Average 24h60/24hK1 (EXT1; 60 μM, 24 h vs 0.05% DMSO): 0.7005 fold change
- EXT1 fold change Average 48h61/48hK1 (EXT1; 60 μM, 48 h vs 0.05% DMSO): 0.7648 fold change
- EXT1 fold change Average 1h100/1hK1 (EXT1; 100 μM, 1 h vs 0.05% DMSO): 0.8358 fold change
